Key:
A549 = assay: Cytotoxicity against human A549 cells assessed as reduction in cell viability incubated for 72 hrs by alamar blue assay; type: functional, cell-based; conditions: A549, 72 h
PC-3 = assay: Cytotoxicity against human PC-3 cells assessed as reduction in cell viability incubated for 72 hrs by alamar blue assay; type: functional, cell-based; conditions: PC-3, 72 h

Row | SMILES | IC50 (A549) [µM] | IC50 (PC-3) [µM]
1 | COc1cc(O)c2c(c1)C(=O)c1cc3c(c(O)c1C2=O)[C@@H](O[C@@H]1O[C@@H](C)[C@H](OC)[C@@H](O)[C@H]1OC)[C@H](OC)[C@](C)(O)C3=O | 2.8 | 3.1
2 | COc1cccc2c1C(=O)c1c(cc3c(c1O)[C@@H](O[C@@H]1O[C@@H](C)[C@H](O)[C@@H](O)[C@H]1OC)[C@H](OC)[C@](C)(O)C3=O)C2=O | 13.8 | 4.3
3 | CO[C@H]1[C@H](O[C@@H]2c3c(cc4c(c3O)C(=O)c3c(O)cccc3C4=O)C(=O)[C@@](C)(O)[C@H]2OC)O[C@@H](C)[C@H](O)[C@H]1O [ARANCIAMYCIN] | 2.7 | 1.1
4 | CC(=O)[C@]1(O)Cc2c(O)c3c(c(O)c2[C@@H](O[C@H]2C[C@H](N)[C@H](O)[C@H](C)O2)C1)C(=O)c1c(O)cccc1C3=O [CARUBICIN] | 0.0131 | 0.035
5 | COc1cccc2c1C(=O)c1c(O)c3c(c(O)c1C2=O)C[C@@](O)(C(C)=O)C[C@@H]3O[C@H]1C[C@H](N)[C@H](O)[C@H](C)O1 [DAUNORUBICIN] | 0.199 | 0.17

— ChEMBL document CHEMBL5335826, “Biochemical and Structural Studies of the Carminomycin 4-O-Methyltransferase DnrK” (J Nat Prod, 2024)
